# Experiments:
# human orexin-2 receptor = human orexin-2 receptor (Homo sapiens (Human), UniProt O43614); experiment: FLIPR Ca2+ Flux Assay, hOX2R; format: cell-based; details: CHO cells expressing the human orexin-2 receptor; agonist 70 pM Ala-6,12 orexin-A
# Procedure: In a typical experiment the OX1 and OX2 receptor antagonistic activity of the compounds of the present invention was determined in accordance with the following experimental method. For intracellular calcium measurements, Chinese hamster ovary (CHO) cells expressing the rat orexin-1 receptor or the human orexin-2 receptor, are grown in Iscove's modified DMEM containing 2 mM L-glutamine, […], 1% hypoxanthine-thymidine supplement, 100 U/ml penicillin, 100 μg/ml streptomycin and 10% heat-inactivated fetal calf serum (FCS). The cells are seeded at 20,000 cells/well into Becton-Dickinson black 384-well clear bottom sterile plates coated with poly-D-lysine. All reagents were from GIBCO-Invitrogen Corp. The seeded plates are incubated overnight at 37° C. and 5% CO2. Ala-6,12 human orexin-A as the agonist is prepared as a 1 mM stock solution in 1% bovine serum albumin (BSA) and diluted in assay buffer (HBSS containing 20 mM HEPES, 0.1% BSA and 2.5 mM probenecid, pH7.4) for use in the assay at a final concentration of 70 pM. Test compounds are prepared as 10 mM stock solution in DMSO, then diluted in 384-well plates, first in DMSO, then assay buffer. On the day of the assay, cells are washed 3 times with 100 μl assay buffer and then incubated for 60 min (37° C., 5% CO2) in 60 μl assay buffer containing 1 μM Fluo-4AM ester, 0.02% pluronic acid, and 1% BSA. The dye loading solution is then aspirated and cells are washed 3 times with 100 μl assay buffer. 30 μl of that same buffer is left in each well. Within the Fluorescent Imaging Plate Reader (FLIPR, Molecular Devices), test compounds are added to the plate in a volume of 25 μl, incubated for 5 min and finally 25 μl of agonist is added. Fluorescence is measured for each well at 1 second intervals for 5 minutes and the height of each fluorescence peak is compared to the height of the fluorescence peak induced by 70 pM Ala-6,12 orexin-A with buffer in place of antagonist. For each antagonist, IC50 value (the concentration of compound needed to inhibit 50% of the agonist response) is determined Alternatively, compound potency can be assessed by a radioligand binding assay (described in Bergman et. al. Bioorg. Med. Chem. Lett. 2008, 18, 1425-1430) in which the inhibition constant (Ki) is determined in membranes prepared from CHO cells expressing either the OX1 or OX2 receptor. The intrinsic orexin receptor antagonist activity of a compound which may be used in the present invention may be determined by these assays.
# hOX1R = hOX1R (Homo sapiens, UniProt O43613); experiment: FLIPR Ca2+ Flux Assay, hOX1R; format: cell-based; details: CHO cells expressing orexin-1 receptor; agonist 70 pM Ala-6,12 orexin-A
# human orexin-2 receptor, sequence (O43614 whole entry): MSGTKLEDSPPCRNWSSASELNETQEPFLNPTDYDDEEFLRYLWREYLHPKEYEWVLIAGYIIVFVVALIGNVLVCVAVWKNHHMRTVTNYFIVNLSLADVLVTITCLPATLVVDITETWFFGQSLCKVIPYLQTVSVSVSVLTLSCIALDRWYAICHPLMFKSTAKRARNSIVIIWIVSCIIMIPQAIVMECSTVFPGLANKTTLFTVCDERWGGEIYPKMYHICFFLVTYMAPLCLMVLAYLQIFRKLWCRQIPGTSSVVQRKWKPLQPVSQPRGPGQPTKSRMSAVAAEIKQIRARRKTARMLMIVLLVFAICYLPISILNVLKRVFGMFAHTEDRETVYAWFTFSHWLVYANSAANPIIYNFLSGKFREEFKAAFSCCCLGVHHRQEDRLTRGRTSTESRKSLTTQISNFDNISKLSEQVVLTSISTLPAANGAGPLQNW
Compound,IC50 (human orexin-2 receptor) [nM],IC50 (hOX1R) [nM]
"CCOC(=O)c1c(C)ccnc1O[C@@H]1CC[C@@H](C)N(C(=O)c2ccccc2-n2nccn2)C1 [Example 1, Ethyl 4-methyl-2-{[(3R,6R)-6-methyl-1-{[2-(2H-1,2,3-triazol-2-yl)phenyl]carbonyl}piperidin-3-yl]oxy}pyridine-3-carboxylate]",8.3,79
"COC(=O)c1c(C)ccnc1O[C@@H]1CC[C@@H](C)N(C(=O)c2ccccc2-n2nccn2)C1 [Example 2, methyl 4-methy1-2-{[(3R,6R)-6-methyl-1-{[2-(2H-1,2,3-triazol-2-yl)phenyl]carbonyl}piperidin-3-yl]oxy}pyridine-3-carboxylate]",17.4,86.2
"COC(=O)c1c(SC)ccnc1O[C@@H]1CC[C@@H](C)N(C(=O)c2ccccc2-n2nccn2)C1 [Example 3, methyl 4-(methylsulfanyl)-2-{[(3R,6R)-6-methyl-1-{[2-(2H-1,2,3-triazol-2-yl)phenyl]carbonyl}-piperidin-3-yl]oxy}pyridine-3-carboxylate]",10,618
"COC(=O)c1c(SC)ccnc1O[C@@H]1CC[C@@H](C)N(C(=O)c2ccccc2-c2ncccn2)C1 [Example 4, Methyl 2-({(3R,6R)-6-methyl-1-{(2-pyrimidin-2ylphenyl)carbonyl}piperidin-3yl}oxy)-4-(methylsulfanyl)pyridine-3-carboxylate]",28.3,554
"COC(=O)c1c(SC)ccnc1O[C@@H]1CC[C@@H](C)N(C(=O)c2cc(F)ccc2-c2ncccn2)C1 [Example 5, methyl 2-({(3R,6R)-1-[(5-fluoro-2-pyrimidin-2-ylphenyl)carbonyl]-6-methylpiperidin-3-yl}oxy)-4-(methylsulfanyl)pyridine-3-carboxylate]",72.9,880
"COC(=O)c1c(SC)ccnc1O[C@@H]1CC[C@@H](C)N(C(=O)c2ccc(F)cc2-c2ncccn2)C1 [Example 6, methyl 2-({(3R,6R)-1-[(4-fluoro-2-pyrimidin-2-ylphenyl)carbonyl]-6-methylpiperidin-3-yl}oxy)-4-(methylsulfanyl)pyridine-3-carboxylate]",31.6,888
"COC(=O)c1c(SC)ccnc1O[C@@H]1CC[C@@H](C)N(C(=O)c2cccc(F)c2-c2ncccn2)C1 [Example 7, methyl 2-({(3R,6R)-1-[(3-fluoro-2-pyrimidin-2-ylphenyl)carbonyl]-6-methylpiperidin-3-yl}oxy)-4-(methylsulfanyl)pyridine-3-carboxylate]",37.8,1030
"COC(=O)c1c(N2CCC2)ccnc1O[C@@H]1CC[C@@H](C)N(C(=O)c2ccccc2-n2nccn2)C1 [Example 8, Methyl 4-azetidin-1-yl-2-{[(3R,6R)-6-methyl-1-{[2-(2H-1,2,3-triazol-2-yl)phenyl]carbonyl}piperidin-3-yl]oxy}pyridine-3-carboxylate]",33,743
"COC(=O)c1c(N2CCN(C)CC2)ccnc1O[C@@H]1CC[C@@H](C)N(C(=O)c2ccccc2-n2nccn2)C1 [Example 9, methyl 4-(4-methylpiperazin-1-yl)-2-{[(3R,6R)-6-methyl-1-{[2-(2H-1,2,3-triazol-2-yl)phenyl]carbonyl}-piperidin-3-yl]oxy}pyridine-3-carboxylate]",1530,10000
"CCc1ccnc(O[C@@H]2CC[C@@H](C)N(C(=O)c3ccccc3-n3nccn3)C2)c1C(=O)OC [Example 10, Methyl 4-ethyl-2-{[(3R,6R)-6-methyl-1-{[2-(2H-1,2,3-triazol-2-yl)phenyl]carbonyl}piperidin-3-yl]oxy}pyridine-3-carboxylate]",21.1,74.9
COC(=O)c1c(C(C)(C)C)ccnc1O[C@@H]1CC[C@@H](C)N(C(=O)c2ccccc2-n2nccn2)C1 [Example 11],1010,2050
"COC(=O)c1c(C(C)C)ccnc1O[C@@H]1CC[C@@H](C)N(C(=O)c2ccccc2-n2nccn2)C1 [Example 12, methyl 4-(1-methylethyl)-2-{[(3R,6R)-6-methyl-1-{[2-(2H-1,2,3-triazol-2-yl)phenyl]carbonyl}-piperidin-3-yl]oxy}pyridine-3-carboxylate]",5.46,80
"COC(=O)c1c(C2CC2)ccnc1O[C@@H]1CC[C@@H](C)N(C(=O)c2ccccc2-n2nccn2)C1 [Example 13, methyl 4-cyclopropyl-2-{[(3R,6R)-6-methyl-1-{[2-(2H-1,2,3-triazol-2-yl)phenyl]carbonyl}piperidin-3-yl]oxy}pyridine-3-carboxylate]",530,803
"COC(=O)c1c(C2CCC2)ccnc1O[C@@H]1CC[C@@H](C)N(C(=O)c2ccccc2-n2nccn2)C1 [Example 14, methyl 4-cyclobutyl-2-{[(3R,6R)-6-methyl-1-{[2-(2H-1,2,3-triazol-2-yl)phenyl]carbonyl}piperidin-3-yl]oxy}pyridine-3-carboxylate]",272,5580
"COC(=O)c1c(C)cccc1O[C@@H]1CC[C@@H](C)N(C(=O)c2ccccc2-n2nccn2)C1 [Example 15, methyl 2-methyl-6-{[(3R,6R)-6-methyl-1-{[2-(2H-1,2,3-triazol-2-yl)phenyl]carbonyl}piperidin-3-yl]oxy}benzoate]",36.2,1930
"COC(=O)c1c(O[C@@H]2CC[C@@H](C)N(C(=O)c3ccccc3-n3nccn3)C2)cccc1C(C)C [Example 16, methyl 2-(1-methylethyl)-6-{[(3R,6R)-6-methyl-1-{[2-(2H-1,2,3-triazol-2-yl)phenyl]carbonyl}-piperidin-3-yl]oxy}benzoate]",68.8,1460
"CCOC(=O)c1c(CC)ccnc1O[C@@H]1CC[C@@H](C)N(C(=O)c2ccccc2-n2nccn2)C1 [Example 17, Ethyl 4-ethyl-2-{[(3R,6R)-6-methyl-1-{[2-(2H-1,2,3-triazol-2-yl)phenyl]carbonyl}piperidin-3-yl]oxy}pyridine-3-carboxylate]",40.4,172
